# In patent US10414763B2 (CANCER RESEARCH TECHNOLOGY LIMITED, priority 2014, dated 2019):
# Biological target: T1, full-length human PKCι (Homo sapiens, UniProt P41743)
# T1 construct: Recombinant, full-length human PKCι expressed in Sf21 insect cells is also commercially available; purchased EMD Millipore; host or cells: Sf21 insect cells (baculovirus)
# T1 sequence (P41743 1-596): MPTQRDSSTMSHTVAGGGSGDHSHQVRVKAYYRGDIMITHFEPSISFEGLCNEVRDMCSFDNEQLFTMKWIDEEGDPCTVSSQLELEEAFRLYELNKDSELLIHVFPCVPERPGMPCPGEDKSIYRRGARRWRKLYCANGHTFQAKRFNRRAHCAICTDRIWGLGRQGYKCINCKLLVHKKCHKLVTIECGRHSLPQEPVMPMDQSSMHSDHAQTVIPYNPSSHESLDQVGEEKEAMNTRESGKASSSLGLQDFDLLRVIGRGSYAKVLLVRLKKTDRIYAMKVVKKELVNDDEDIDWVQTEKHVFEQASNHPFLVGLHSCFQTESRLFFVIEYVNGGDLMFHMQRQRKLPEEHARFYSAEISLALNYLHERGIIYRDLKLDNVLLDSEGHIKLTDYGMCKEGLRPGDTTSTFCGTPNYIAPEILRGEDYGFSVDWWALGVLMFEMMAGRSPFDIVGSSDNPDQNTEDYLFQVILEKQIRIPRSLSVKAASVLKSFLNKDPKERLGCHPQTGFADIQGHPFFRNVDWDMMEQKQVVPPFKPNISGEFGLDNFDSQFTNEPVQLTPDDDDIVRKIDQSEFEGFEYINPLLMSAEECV
# Assay: PKCι IC50 IMAP fluorescence polarisation assay, full-length enzyme, 150 μM ATP
# Assay type: biochemical
# Settings: read-out: IC50 in IMAP assay against full length PKCi at 150 μM ATP
# Procedure, shortened: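 IMAP fluorescence polarisation kinase assay: 15 pM baculovirus-expressed human PKCiota with 100 nM FAM-pseudosubstrate peptide and 150 μM ATP, 1 h at 25 °C. IMAP detection reagent then 2 h at 25 °C before FP measurement. Inhibition referenced to no-compound and no-enzyme controls for IC50 fitting.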
row,Structure (SMILES),IC50
1,"C[C@H]1CNCC[C@H]1Nc1nc(-c2ccnc3[nH]c4ccccc4c23)nc2cncc(C(F)(F)F)c12 (racemic) [Example 351, rac-(3S,4R)-3-Methyl-piperidin-4-yl)-[2-(9H-pyrido[2,3-b]indol-4-yl)-5-trifluoromethyl-pyrido[3,4-d]pyrimidin-4-yl]-amine]",0.1 to 1 µM
2,"C[C@@H]1CNCC[C@H]1Nc1nc(-c2ccnc3[nH]c4ccccc4c23)nc2cncc(C(F)(F)F)c12 (racemic) [Example 352, (rac-(3R,4R)-3-Methyl-piperidin-4-yl)-[2-(9H-pyrido[2,3-b]indol-4-yl)-5-trifluoromethyl-pyrido[3,4-d]pyrimidin-4-yl]-amine]",< 0.1 µM
3,"C[C@@]1(O)CNCC[C@H]1Nc1nc(-c2ccnc3[nH]c(-c4cc(F)ccc4Cl)cc23)nc2cncc(C3CC3)c12 (racemic) [Example 354, rac-(3R,4R)-4-{2-[2-(2-Chloro-5-fluoro-phenyl)-1H-pyrrolo[2,3-b]pyridin-4-yl]-5-cyclopropyl-pyrido[3,4-d]pyrimidin-4-ylamino}-3-methyl-piperidin-3-ol]",< 0.1 µM
4,"O[C@@]12CCN(c3nc(-c4ccnc5[nH]c(-c6cc(F)ccc6Cl)cc45)nc4cncc(C5CC5)c34)[C@@H]1CCNC2 (racemic) [Example 358, rac(1R,3aS)-1-{2-[2-(2-Chloro-5-fluoro-phenyl)-1H-pyrrolo[2,3-b]pyridin-4-yl]-5-cyclopropyl-pyrido[3,4-d]pyrimidin-4-yl}-octahydro-pyrrolo[3,2-c]pyridin-3a-ol]",< 0.1 µM
5,"CN(c1nc(-c2ccnc3[nH]c(-c4cc(F)ccc4Cl)cc23)nc2cncc(C3CC3)c12)[C@@H]1CCNC[C@@]1(C)O (racemic) [Example 359, rac-(3R,4R)-4-({2-[2-(2-Chloro-5-fluoro-phenyl)-1H-pyrrolo[2,3-b]pyridin-4-yl]-5-cyclopropyl-pyrido[3,4-d]pyrimidin-4-yl}-methyl-amino)-3-methyl-piperidin-3-ol]",< 0.1 µM
6,"O[C@H]1CNCC[C@H]1Nc1nc(-c2ccnc(Nc3nc(F)ccc3F)c2)nc2cncc(C3CCC3)c12 (racemic) [Example 381, rac-(3S,4R)-4-{5-Cyclobutyl-2-[2-(3,6-difluoro-pyridin-2-ylamino)-pyridin-4-yl]-pyrido[3,4-d]pyrimidin-4-ylamino}-piperidin-3-ol]",< 0.1 µM
7,"C[C@H]1C[C@@H](Nc2nc(-c3ccnc(Nc4nc(F)ccc4F)c3)nc3cncc(C4CCC4)c23)CCN1 (racemic) [Example 386, {5-Cyclobutyl-2-[2-(3,6-difluoro-pyridin-2-ylamino)-pyridin-4-yl]-pyrido[3,4-d]pyrimidin-4-yl}-(rac-(2S,4S)-2-methyl-piperidin-4-yl)-amine]",< 0.1 µM
8,"C[C@@H]1C[C@@H](Nc2nc(-c3ccnc(Nc4nc(F)ccc4F)c3)nc3cncc(C4CCC4)c23)CCN1 (racemic) [Example 387, {5-Cyclobutyl-2-[2-(3,6-difluoro-pyridin-2-ylamino)-pyridin-4-yl]-pyrido[3,4-d]pyrimidin-4-yl}-(rac-(2R,4S)-2-methyl-piperidin-4-yl)-amine]",< 0.1 µM
9,"C[C@@H]1CNCC[C@H]1Nc1nc(-c2ccnc(Nc3nc(F)ccc3F)c2)nc2cncc(C3CCC3)c12 (single isomer, unassigned) [Example 279, {5-Cyclobutyl-2-[2-(3,6-difluoro-pyridin-2-ylamino)-pyridin-4-yl]-pyrido[3,4-d]pyrimidin-4-yl}-((3R,4R)-3-methyl-piperidin-4-yl)-amine or enantiomer]",< 0.1 µM
10,"C[C@H]1CNCC[C@@H]1Nc1nc(-c2ccnc(Nc3nc(F)ccc3F)c2)nc2cncc(C3CCC3)c12 (single isomer, unassigned) [Example 280, {5-Cyclobutyl-2-[2-(3,6-difluoro-pyridin-2-ylamino)-pyridin-4-yl]-pyrido[3,4-d]pyrimidin-4-yl}-((3S,4S)-3-methyl-piperidin-4-yl)-amine or enantiomer]",< 0.1 µM
11,"C[C@@H]1CNCC[C@@H]1Nc1nc(-c2ccnc(Nc3nc(F)ccc3F)c2)nc2cncc(C3CCC3)c12 (single isomer, unassigned) [Example 297, {5-Cyclobutyl-2-[2-(3,6-difluoro-pyridin-2-ylamino)-pyridin-4-yl]-pyrido[3,4-d]pyrimidin-4-yl}-((3R,4S)-3-methyl-piperidin-4-yl)-amine or enantiomer]",< 0.1 µM
12,"C[C@H]1CNCC[C@H]1Nc1nc(-c2ccnc(Nc3nc(F)ccc3F)c2)nc2cncc(C3CCC3)c12 (single isomer, unassigned) [Example 298, {5-Cyclobutyl-2-[2-(3,6-difluoro-pyridin-2-ylamino)-pyridin-4-yl]-pyrido[3,4-d]pyrimidin-4-yl}-((3S,4R)-3-methyl-piperidin-4-yl)-amine or enantiomer]",< 0.1 µM
13,"C[C@H]1CNCC[C@@H]1Nc1nc(-c2ccnc(Nc3nc(F)ccc3F)c2)nc2cncc(C3CC3)c12 (single isomer, unassigned) [Example 334, 5-Cyclopropyl-2-[2-[(3,6-difluoro-2-pyridyl)amino]-4-pyridyl]-N-[(3S,4S)-3-methyl-4-piperidyl]pyrido[3,4-d]pyrimidin-4-amine or enantiomer]",< 0.1 µM
14,"C[C@@H]1CNCC[C@H]1Nc1nc(-c2ccnc(Nc3nc(F)ccc3F)c2)nc2cncc(C3CC3)c12 (single isomer, unassigned) [Example 335, 5-Cyclopropyl-2-[2-[(3,6-difluoro-2-pyridyl)amino]-4-pyridyl]-N-[(3R,4R)-3-methyl-4-piperidyl]pyrido[3,4-d]pyrimidin-4-amine or enantiomer]",< 0.1 µM
15,"C[C@@H]1CNCC[C@H]1Nc1nc(-c2ccnc(Nc3ncccc3F)c2)nc2cncc(C3CCC3)c12 (single isomer, unassigned) [Example 341, 5-Cyclobutyl-2-[2-[(3-fluoro-2-pyridyl)amino]-4-pyridyl]-N-[(3R,4R)-3-methyl-4-piperidyl]pyrido[3,4-d]pyrimidin-4-amine or enantiomer]",< 0.1 µM
16,"C[C@H]1CNCC[C@@H]1Nc1nc(-c2ccnc(Nc3ncccc3F)c2)nc2cncc(C3CCC3)c12 (single isomer, unassigned) [Example 342, 5-Cyclobutyl-2-[2-[(3-fluoro-2-pyridyl)amino]-4-pyridyl]-N-[(3S,4S)-3-methyl-4-piperidyl]pyrido[3,4-d]pyrimidin-4-amine or enantiomer]",< 0.1 µM
17,"CC1(C)CNCCC1Nc1nc(-c2ccnc3[nH]c(-c4cc(Cl)ccc4Cl)cc23)nc2cncc(C3CC3)c12 (stereo in doubt) [Example 353, {5-Cyclopropyl-2-[2-(2,5-dichloro-phenyl)-1H-pyrrolo[2,3-b]pyridin-4-yl]-pyrido[3,4-d]pyrimidin-4-yl}-((S)-3,3-dimethyl-piperidin-4-yl)-amine]",< 0.1 µM
18,"Cc1cn2c(n1)[nH]c1nccc(-c3nc(N4CCNCC4)c4c(C5CCC5)cncc4n3)c12 [Example 3, 4-(5-Cyclobutyl-4-piperazin-1-yl-pyrido[3,4-d]pyrimidin-2-yl)-2-methyl-8H-1,3a,7,8-tetraaza-cyclopent[a]indene]",0.1 to 1 µM
19,"OC[C@@H]1CNCCN1c1nc(-c2ccnc3[nH]c(C(F)(F)F)cc23)nc2cncc(C3CC3)c12 [Example 4, {(S)-1-[5-Cyclopropyl-2-(2-trifluoromethyl-1H-pyrrolo[2,3-b]pyridin-4-yl)-pyrido[3,4-d]pyrimidin-4-yl]-piperazin-2-yl}-methanol]",0.1 to 1 µM
20,"OC[C@@H]1CNCCN1c1nc(-c2ccnc3[nH]c(C(F)(F)F)cc23)nc2cncc(C3CCC3)c12 [Example 5, {(S)-1-[5-Cyclobutyl-2-(2-trifluoromethyl-1H-pyrrolo[2,3-b]pyridin-4-yl)-pyrido[3,4-d]pyrimidin-4-yl]-piperazin-2-yl}-methanol]",1 to 10 µM
21,"OC[C@H]1CNCCN1c1nc(-c2ccnc3[nH]c(C(F)(F)F)cc23)nc2cncc(C3CC3)c12 [Example 6, {(R)-1-[5-Cyclopropyl-2-(2-trifluoromethyl-1H-pyrrolo[2,3-b]pyridin-4-yl)-pyrido[3,4-d]pyrimidin-4-yl]-piperazin-2-yl}-methanol]",0.1 to 1 µM
22,"OC[C@H]1CNCCN1c1nc(-c2ccnc3[nH]c(C(F)(F)F)cc23)nc2cncc(C3CCC3)c12 [Example 7, {(R)-1-[5-Cyclobutyl-2-(2-trifluoromethyl-1H-pyrrolo[2,3-b]pyridin-4-yl)-pyrido[3,4-d]pyrimidin-4-yl]-piperazin-2-yl}-methanol]",0.1 to 1 µM
23,"c1ccc2c(c1)[nH]c1nccc(-c3nc(N4CC[C@@H]5CNC[C@@H]54)c4c(C5CCC5)cncc4n3)c12 [Example 9, 4-((R)-5-Cyclobutyl-4-(R)-hexahydro-pyrrolo[3,4-b]pyrrol-1-yl-pyrido[3,4-d]pyrimidin-2-yl)-9H-pyrido[2,3-b]indole]",< 0.1 µM
24,"c1ccc2c(c1)[nH]c1nccc(-c3nc(N4CC[C@H]5CNC[C@H]54)c4c(C5CCC5)cncc4n3)c12 [Example 10, 4-((S)-5-Cyclobutyl-4 (S)-hexahydro-pyrrolo[3,4-b]pyrrol-1-yl-pyrido[3,4-d]pyrimidin-2-yl)-9H-pyrido[2,3-b]indole]",< 0.1 µM
